Data: ChEMBL document CHEMBL4725442, “Exception That Proves the Rule: Investigation of Privileged Stereochemistry in Designing Dopamine DR Bitopic Agonists” (ACS Med Chem Lett, 2020)

Legend:
Format in all cases: cell-based
D(1A) dopamine receptor [1] = molecular target: T1, D(1A) dopamine receptor (Homo sapiens, UniProt P21728); experiment: Displacement of [3H]-SCH23390 from human D1 receptor expressed in HEK293 cells at 100 uM after 60 mins by microbeta counting based assay relative to control
Mu-type opioid receptor [2] = molecular target: T2, Mu-type opioid receptor (Homo sapiens, UniProt P35372); experiment: Displacement of [3H]-DAMGO from human MOR expressed in HEK293 cells after 60 mins by microbeta counting based assay
D(1A) dopamine receptor [3] = molecular target: T1, D(1A) dopamine receptor; experiment: Displacement of [3H]-SCH23390 from human D1 receptor expressed in HEK293 cells after 60 mins by microbeta counting based assay
D(3) dopamine receptor = D(3) dopamine receptor (Homo sapiens, UniProt P35462); experiment: Displacement of [3H]-(R)-(+)-7-OH-DPAT from human D3 receptor expressed in HEK293 cells after 90 mins by microbeta counting based assay
D(2) dopamine receptor = D(2) dopamine receptor (Homo sapiens, UniProt P14416); experiment: Displacement of [3H]-(R)-(+)-7-OH-DPAT from human D2L receptor expressed in HEK293 cells after 90 mins by microbeta counting based assay
Mu-type opioid receptor [4] = molecular target: T2, Mu-type opioid receptor; experiment: Displacement of [3H]-DAMGO from human MOR expressed in HEK293 cells at 100 uM after 60 mins by microbeta counting based assay relative to control

T2 sequence (P35372 whole entry): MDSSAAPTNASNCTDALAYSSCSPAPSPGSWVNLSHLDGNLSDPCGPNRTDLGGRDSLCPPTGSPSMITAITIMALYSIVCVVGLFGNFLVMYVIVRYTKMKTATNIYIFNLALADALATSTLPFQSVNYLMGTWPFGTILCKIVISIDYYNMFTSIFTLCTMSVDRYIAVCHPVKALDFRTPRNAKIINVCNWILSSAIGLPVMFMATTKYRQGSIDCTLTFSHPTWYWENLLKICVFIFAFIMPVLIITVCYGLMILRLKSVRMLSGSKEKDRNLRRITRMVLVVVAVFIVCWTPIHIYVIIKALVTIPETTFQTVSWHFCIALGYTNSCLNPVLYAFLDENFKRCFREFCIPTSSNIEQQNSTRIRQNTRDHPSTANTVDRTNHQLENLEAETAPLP
T1 sequence (P21728 whole entry): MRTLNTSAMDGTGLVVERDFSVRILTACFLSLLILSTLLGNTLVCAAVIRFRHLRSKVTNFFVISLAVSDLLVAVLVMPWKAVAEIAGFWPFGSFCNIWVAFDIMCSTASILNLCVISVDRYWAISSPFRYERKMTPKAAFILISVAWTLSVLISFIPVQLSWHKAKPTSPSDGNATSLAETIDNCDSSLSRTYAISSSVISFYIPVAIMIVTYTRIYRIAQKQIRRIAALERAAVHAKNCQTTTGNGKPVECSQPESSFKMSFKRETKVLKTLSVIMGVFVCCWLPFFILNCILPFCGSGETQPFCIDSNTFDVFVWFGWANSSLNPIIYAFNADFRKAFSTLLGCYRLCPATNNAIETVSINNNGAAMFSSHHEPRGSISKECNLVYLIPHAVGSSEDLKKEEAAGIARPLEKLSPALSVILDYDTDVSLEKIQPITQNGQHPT
D(3) dopamine receptor, sequence (P35462 whole entry): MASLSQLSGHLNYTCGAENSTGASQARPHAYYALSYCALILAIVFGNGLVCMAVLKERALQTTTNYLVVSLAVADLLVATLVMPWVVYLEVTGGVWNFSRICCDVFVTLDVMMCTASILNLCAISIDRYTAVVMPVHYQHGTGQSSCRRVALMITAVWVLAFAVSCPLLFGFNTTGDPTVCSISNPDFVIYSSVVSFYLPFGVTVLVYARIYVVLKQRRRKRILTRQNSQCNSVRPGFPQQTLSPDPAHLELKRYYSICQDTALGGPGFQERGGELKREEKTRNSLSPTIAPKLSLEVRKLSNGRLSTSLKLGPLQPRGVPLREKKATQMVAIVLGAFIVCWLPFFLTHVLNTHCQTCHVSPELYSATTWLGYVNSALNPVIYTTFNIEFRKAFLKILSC
D(2) dopamine receptor, sequence (P14416 whole entry): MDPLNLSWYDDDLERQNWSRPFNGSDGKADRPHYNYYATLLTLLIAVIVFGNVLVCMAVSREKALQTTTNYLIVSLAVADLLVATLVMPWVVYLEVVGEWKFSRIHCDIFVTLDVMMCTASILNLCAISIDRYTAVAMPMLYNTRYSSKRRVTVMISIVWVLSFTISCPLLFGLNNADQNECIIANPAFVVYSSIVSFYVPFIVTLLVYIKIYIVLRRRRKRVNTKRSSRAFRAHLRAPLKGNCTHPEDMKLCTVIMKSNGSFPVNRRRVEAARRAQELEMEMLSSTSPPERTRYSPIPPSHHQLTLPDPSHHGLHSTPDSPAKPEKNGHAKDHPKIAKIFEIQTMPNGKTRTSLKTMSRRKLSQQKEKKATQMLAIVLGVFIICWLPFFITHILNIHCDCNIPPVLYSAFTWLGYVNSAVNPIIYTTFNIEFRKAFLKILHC

Structure (SMILES)	inhibition (D(1A) dopamine receptor [1])	Ki (Mu-type opioid receptor [2])	Ki (D(1A) dopamine receptor [3])	Ki (D(3) dopamine receptor)	Ki (D(2) dopamine receptor)	inhibition (Mu-type opioid receptor [4])
CCCN1CCO[C@H]2c3cc(O)ccc3OC[C@@H]21	< 50%	–	–	–	–	–
CCCN1CCO[C@@H]2c3cc(O)ccc3OC[C@H]21	< 50%	–	–	–	–	–
O=C(NCCCCN1CCO[C@H]2c3cc(O)ccc3OC[C@@H]21)c1cc2ccccc2[nH]1 (relative stereo)	< 50%	12.4 µM	> 100 µM	5.54 µM	5.88 µM	–
C[C@H]1CO[C@@H](c2ccc(N)nc2)CN1CC(O)CCNC(=O)c1cc2ccccc2[nH]1 (stereo partly specified)	< 50%	–	> 100 µM	–	–	–
CCCN1CC(c2ccc(N)nc2)OC[C@@H]1C (mixture of isomers)	< 50%	> 100 µM	> 100 µM	–	–	< 50%
C[C@H]1CO[C@@H](c2ccc(N)nc2)CN1CC[C@H]1CC[C@H](NC(=O)c2cc3ccccc3[nH]2)CC1 (relative stereo)	< 50%	21.9 µM	> 100 µM	–	–	–
O=C(NCCCCN1CCO[C@@H]2c3cc(O)ccc3OC[C@@H]21)c1cc2ccccc2[nH]1 (relative stereo)	< 50%	12.3 µM	> 100 µM	13.8 µM	9.42 µM	–
